Laboratory results reported in US10670605B2, “Cysteine reactive probes and uses thereof” (The Scripps Research Institute, priority 2015, dated 2020).
Each block holds one compound with its values, some of them ahead of it.

Tests used:
Assay in all cases: Competitive isoTOP-ABPP in situ (fragment-treated cells)
Assay type in all cases: cell-based
[1] = biological target: cysteines in MDA-MB-231 and Ramos cells (Homo sapiens, UniProt P35658)
[2] = biological target: T1, cysteines in MDA-MB-231 and Ramos cells (Homo sapiens, UniProt Q9NQ88)
T1 sequence (Q9NQ88 1-270): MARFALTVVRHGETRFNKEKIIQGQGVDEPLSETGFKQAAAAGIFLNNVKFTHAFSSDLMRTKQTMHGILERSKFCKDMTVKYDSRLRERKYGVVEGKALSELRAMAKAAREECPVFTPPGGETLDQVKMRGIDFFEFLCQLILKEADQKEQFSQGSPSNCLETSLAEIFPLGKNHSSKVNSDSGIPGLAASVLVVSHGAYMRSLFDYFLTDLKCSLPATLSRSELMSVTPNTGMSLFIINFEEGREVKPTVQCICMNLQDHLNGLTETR

[3] = biological target: cysteines in MDA-MB-231 and Ramos cells (Homo sapiens, UniProt Q96EY5)
[4] = biological target: T2, cysteines in MDA-MB-231 and Ramos cells (Homo sapiens, UniProt Q9Y5Y2)
T2 sequence (Q9Y5Y2 1-271): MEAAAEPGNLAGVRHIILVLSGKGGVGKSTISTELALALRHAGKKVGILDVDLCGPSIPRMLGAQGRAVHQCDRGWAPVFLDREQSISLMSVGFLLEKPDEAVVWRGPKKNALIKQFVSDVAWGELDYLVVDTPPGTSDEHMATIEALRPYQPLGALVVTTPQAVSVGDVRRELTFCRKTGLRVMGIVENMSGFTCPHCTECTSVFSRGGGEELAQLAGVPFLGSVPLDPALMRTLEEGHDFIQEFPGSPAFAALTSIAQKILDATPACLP

[5] = biological target: T3, cysteines in MDA-MB-231 and Ramos cells (Homo sapiens, UniProt Q8WV74)
T3 sequence (Q8WV74 1-236): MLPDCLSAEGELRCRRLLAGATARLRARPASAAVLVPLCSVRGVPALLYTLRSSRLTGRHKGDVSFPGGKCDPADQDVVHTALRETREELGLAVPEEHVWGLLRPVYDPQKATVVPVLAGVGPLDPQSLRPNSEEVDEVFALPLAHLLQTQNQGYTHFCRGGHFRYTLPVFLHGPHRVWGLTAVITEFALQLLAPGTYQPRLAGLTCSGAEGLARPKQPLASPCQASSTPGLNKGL

[6] = biological target: T4, cysteines in MDA-MB-231 and Ramos cells (Homo sapiens, UniProt A0AVT1)
T4 sequence (A0AVT1 1-1052): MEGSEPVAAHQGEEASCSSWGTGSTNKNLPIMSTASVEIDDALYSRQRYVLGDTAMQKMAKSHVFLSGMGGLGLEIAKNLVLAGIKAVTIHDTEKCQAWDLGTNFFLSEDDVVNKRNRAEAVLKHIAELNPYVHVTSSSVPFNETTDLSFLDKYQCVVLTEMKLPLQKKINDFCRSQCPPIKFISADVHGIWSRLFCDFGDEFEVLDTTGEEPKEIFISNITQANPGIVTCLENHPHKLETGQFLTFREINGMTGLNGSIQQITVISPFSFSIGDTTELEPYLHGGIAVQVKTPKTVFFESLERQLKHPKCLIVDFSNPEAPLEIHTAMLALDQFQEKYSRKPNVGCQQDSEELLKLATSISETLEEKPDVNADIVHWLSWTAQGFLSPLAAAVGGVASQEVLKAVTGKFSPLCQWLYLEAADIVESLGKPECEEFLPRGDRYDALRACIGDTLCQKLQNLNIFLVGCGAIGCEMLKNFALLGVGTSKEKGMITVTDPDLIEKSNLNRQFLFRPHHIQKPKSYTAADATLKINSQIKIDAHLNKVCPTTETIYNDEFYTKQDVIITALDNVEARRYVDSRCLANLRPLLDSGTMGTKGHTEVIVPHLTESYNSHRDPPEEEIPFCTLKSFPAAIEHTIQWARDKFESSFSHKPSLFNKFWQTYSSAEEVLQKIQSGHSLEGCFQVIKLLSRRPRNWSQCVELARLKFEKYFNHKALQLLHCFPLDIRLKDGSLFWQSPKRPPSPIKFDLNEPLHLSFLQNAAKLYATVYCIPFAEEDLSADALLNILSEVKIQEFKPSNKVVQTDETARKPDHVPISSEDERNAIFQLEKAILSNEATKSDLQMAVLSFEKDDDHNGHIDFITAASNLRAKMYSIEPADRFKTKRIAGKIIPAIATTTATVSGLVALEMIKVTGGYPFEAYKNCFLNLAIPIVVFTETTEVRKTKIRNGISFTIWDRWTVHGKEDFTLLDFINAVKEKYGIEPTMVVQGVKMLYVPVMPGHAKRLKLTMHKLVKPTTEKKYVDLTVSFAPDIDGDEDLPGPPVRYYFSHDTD

[7] = biological target: cysteines in MDA-MB-231 and Ramos cells (Homo sapiens, UniProt Q06203); conditions: for isoTOP-ABPP ratio, cysteine Q06203_C100: 200 μM, insitu, ramos
[8] = biological target: cysteines in MDA-MB-231 and Ramos cells (Homo sapiens, UniProt P14635)
[9] = biological target: cysteines in MDA-MB-231 and Ramos cells (Homo sapiens, UniProt Q8WWI1)
[10] = biological target: T5, cysteines in MDA-MB-231 and Ramos cells (Homo sapiens, UniProt Q8WVV9)
T5 sequence (Q8WVV9 1-542): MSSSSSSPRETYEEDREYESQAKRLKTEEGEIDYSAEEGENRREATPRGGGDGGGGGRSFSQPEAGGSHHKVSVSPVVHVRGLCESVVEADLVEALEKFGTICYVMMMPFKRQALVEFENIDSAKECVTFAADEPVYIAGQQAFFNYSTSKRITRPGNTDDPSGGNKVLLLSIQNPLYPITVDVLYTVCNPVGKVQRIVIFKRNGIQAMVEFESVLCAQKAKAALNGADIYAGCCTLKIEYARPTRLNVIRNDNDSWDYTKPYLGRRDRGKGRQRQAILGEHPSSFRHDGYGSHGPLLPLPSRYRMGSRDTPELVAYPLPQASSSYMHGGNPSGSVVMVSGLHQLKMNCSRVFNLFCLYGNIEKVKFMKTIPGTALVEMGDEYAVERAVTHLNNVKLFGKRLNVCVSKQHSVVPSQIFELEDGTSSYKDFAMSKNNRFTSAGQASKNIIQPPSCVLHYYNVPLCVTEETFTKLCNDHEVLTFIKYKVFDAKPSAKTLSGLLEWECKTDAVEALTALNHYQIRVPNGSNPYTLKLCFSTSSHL

Sequence of cysteines in MDA-MB-231 and Ramos cells (Homo sapiens, UniProt Q06203) (Q06203 12-517): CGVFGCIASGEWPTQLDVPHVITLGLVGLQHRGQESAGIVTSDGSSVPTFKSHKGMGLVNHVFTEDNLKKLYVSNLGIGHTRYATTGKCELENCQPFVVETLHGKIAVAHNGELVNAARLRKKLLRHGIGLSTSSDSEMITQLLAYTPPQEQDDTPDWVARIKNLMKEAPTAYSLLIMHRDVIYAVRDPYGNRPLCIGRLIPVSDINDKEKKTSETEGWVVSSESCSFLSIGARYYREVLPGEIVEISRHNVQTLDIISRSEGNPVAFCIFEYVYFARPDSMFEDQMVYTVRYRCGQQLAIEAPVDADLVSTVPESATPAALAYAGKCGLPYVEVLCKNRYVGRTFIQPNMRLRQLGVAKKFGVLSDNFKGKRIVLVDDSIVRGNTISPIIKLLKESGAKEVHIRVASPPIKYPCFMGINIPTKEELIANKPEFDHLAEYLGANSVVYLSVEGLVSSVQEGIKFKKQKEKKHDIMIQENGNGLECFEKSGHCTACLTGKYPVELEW
Sequence of cysteines in MDA-MB-231 and Ramos cells (Homo sapiens, UniProt P35658) (P35658 whole entry): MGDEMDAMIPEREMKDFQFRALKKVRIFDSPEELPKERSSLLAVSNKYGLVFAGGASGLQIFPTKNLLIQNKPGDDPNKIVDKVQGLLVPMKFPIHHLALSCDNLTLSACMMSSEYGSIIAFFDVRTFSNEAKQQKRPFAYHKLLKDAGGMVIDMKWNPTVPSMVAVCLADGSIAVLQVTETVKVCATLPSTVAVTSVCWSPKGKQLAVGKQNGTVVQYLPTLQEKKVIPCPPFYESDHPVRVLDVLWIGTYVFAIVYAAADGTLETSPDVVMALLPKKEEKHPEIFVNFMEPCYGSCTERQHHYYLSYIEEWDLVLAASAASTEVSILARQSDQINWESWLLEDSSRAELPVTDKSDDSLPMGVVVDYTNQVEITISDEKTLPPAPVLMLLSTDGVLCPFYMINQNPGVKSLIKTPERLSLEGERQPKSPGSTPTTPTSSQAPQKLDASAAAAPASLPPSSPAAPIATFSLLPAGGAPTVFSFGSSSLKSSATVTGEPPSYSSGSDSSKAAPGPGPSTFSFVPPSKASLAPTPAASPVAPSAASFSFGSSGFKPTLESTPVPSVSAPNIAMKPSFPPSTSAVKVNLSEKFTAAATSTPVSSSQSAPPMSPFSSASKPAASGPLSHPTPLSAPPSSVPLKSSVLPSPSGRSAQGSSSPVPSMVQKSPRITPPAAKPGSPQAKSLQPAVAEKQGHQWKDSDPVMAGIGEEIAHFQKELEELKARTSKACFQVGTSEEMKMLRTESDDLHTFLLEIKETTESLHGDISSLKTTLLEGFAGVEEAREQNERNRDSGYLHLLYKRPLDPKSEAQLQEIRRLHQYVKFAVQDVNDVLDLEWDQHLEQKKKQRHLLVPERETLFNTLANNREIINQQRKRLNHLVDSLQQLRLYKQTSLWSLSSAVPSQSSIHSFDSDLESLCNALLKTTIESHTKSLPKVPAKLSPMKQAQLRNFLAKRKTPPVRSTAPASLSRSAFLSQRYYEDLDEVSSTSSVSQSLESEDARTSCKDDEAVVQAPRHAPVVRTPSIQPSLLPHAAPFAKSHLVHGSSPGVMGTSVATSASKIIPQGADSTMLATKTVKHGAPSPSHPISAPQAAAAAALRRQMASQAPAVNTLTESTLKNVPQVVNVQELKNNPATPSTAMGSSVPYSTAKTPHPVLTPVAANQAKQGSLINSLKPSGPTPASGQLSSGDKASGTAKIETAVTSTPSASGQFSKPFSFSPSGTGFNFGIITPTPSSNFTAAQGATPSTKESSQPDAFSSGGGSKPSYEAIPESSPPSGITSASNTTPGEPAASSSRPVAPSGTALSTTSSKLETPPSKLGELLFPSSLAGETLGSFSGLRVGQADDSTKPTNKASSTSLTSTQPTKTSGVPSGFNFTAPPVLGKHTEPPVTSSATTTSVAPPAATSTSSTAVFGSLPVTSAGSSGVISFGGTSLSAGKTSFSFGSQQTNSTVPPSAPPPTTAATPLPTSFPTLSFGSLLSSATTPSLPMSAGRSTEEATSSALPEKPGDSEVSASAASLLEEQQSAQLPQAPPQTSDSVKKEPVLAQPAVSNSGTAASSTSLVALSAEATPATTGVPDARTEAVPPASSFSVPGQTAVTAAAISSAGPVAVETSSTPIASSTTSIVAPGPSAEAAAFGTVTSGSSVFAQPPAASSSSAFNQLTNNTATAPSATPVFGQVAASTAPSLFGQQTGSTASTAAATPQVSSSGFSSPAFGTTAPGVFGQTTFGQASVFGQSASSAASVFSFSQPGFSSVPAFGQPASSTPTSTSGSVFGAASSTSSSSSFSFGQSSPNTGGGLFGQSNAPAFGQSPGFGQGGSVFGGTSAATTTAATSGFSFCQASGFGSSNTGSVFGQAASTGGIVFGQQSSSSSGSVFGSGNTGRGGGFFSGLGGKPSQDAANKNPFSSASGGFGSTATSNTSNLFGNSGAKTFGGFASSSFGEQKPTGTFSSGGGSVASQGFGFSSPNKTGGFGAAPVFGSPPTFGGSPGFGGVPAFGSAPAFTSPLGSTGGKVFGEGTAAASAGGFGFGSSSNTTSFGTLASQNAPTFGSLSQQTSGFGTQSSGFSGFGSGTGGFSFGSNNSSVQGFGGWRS
Sequence of cysteines in MDA-MB-231 and Ramos cells (Homo sapiens, UniProt Q8WWI1) (Q8WWI1 whole entry): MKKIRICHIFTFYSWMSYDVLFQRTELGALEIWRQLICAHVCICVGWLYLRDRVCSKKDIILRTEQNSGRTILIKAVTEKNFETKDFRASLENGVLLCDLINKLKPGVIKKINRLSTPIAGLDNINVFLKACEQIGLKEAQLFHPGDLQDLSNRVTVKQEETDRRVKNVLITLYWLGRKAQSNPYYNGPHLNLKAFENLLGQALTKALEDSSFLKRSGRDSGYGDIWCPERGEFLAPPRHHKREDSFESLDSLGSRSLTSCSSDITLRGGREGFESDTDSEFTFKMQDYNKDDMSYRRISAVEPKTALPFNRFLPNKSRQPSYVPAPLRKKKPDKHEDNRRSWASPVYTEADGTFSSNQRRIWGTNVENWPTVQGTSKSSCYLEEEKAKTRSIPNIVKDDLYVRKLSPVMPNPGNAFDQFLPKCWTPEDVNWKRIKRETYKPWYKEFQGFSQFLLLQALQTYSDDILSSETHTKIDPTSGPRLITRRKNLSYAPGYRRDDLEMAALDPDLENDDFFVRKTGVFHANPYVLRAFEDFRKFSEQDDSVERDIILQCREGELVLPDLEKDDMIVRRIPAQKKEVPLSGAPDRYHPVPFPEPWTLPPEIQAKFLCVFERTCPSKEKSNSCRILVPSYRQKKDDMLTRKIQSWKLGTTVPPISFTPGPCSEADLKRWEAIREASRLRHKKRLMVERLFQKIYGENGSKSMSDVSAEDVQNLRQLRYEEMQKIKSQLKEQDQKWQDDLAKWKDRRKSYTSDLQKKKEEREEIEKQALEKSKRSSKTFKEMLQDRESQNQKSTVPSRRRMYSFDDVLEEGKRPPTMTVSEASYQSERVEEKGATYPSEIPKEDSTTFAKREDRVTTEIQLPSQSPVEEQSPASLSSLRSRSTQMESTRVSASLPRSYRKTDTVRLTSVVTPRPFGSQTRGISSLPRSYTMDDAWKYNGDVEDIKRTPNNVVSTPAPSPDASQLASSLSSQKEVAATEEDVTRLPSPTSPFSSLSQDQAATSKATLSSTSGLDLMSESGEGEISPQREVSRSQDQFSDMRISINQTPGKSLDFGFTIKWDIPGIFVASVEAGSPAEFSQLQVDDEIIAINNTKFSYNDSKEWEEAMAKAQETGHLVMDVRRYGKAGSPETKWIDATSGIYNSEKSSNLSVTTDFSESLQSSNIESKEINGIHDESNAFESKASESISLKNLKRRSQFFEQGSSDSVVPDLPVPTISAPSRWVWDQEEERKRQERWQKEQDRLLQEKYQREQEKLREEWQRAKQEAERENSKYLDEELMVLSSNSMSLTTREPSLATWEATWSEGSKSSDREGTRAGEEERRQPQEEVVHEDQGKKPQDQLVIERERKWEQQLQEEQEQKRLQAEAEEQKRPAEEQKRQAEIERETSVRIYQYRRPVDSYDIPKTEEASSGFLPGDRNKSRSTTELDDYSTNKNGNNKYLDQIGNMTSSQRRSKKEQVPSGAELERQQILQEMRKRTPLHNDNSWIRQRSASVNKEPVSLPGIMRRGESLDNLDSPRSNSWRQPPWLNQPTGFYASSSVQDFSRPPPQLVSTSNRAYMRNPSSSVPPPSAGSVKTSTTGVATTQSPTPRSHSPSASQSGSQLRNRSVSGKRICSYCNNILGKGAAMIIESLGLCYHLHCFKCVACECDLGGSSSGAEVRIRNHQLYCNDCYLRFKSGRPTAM
Sequence of cysteines in MDA-MB-231 and Ramos cells (Homo sapiens, UniProt P14635) (P14635 whole entry): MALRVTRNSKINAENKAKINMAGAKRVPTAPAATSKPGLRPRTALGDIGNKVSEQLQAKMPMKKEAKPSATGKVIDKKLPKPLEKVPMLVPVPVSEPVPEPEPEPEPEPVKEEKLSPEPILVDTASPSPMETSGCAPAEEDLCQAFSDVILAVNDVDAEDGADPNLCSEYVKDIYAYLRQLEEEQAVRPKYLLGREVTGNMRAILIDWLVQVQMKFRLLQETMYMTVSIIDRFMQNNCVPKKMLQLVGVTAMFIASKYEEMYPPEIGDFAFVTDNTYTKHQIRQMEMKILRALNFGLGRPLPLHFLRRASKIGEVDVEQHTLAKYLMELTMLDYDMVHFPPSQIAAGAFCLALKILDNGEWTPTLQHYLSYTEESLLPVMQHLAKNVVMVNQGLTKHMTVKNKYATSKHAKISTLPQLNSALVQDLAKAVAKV

isoTOP-ABPP reactivity P35658_C728 NUP214 ([1]; 200 μM, insitu, 231): 3.9
isoTOP-ABPP reactivity Q9NQ88_C114 TIGAR ([2]; 200 μM, insitu, 231): 2.8
isoTOP-ABPP reactivity Q9NQ88_C161 TIGAR ([2]; 200 μM, insitu, 231): 6.0
isoTOP-ABPP reactivity Q96EY5_C231 FAM125A ([3]; 200 μM, insitu, 231): 4.1
isoTOP-ABPP reactivity Q9Y5Y2_C72 NUBP2 ([4]; 200 μM, insitu, 231): 5.3
isoTOP-ABPP reactivity Q8WV74_C207 NUDT8 ([5]; 200 μM, insitu, 231): 20.0
SMILES: COc1ccc2c(c1)CCCN2C(=O)CCl [compound 2]

isoTOP-ABPP reactivity P35658_C728 NUP214 ([1]; 100 μM in situ 231): 1.7
isoTOP-ABPP reactivity A0AVT1_C347 UBA6 ([6]; 100 μM in situ 231): 20.0
isoTOP-ABPP reactivity Q96EY5_C231 FAM125A ([3]; 100 μM in situ 231): 1.7
isoTOP-ABPP reactivity Q8WV74_C207 NUDT8 ([5]; 100 μM in situ 231): 20.0
isoTOP-ABPP reactivity Q06203_C100 PPAT ([7]; 100 μM in situ 231): 1.7
SMILES: COc1ccc(C2CC(c3cccs3)=NN2C(=O)CCl)cc1 (stereo not shown) [compound 4]

isoTOP-ABPP reactivity Q8WV74_C207 NUDT8 ([5]; 200 μM, insitu, 231): 20.0
SMILES: COc1cc2c(cc1OC)CN(C(=O)CCl)CC2 [compound 8]

isoTOP-ABPP reactivity Q9NQ88_C114 TIGAR ([2]; 200 μM, insitu, 231): 1.9
isoTOP-ABPP reactivity Q9NQ88_C161 TIGAR ([2]; 200 μM, insitu, 231): 2.6
isoTOP-ABPP reactivity A0AVT1_C347 UBA6 ([6]; 200 μM, insitu, 231): 3.3
isoTOP-ABPP reactivity Q96EY5_C231 FAM125A ([3]; 200 μM, insitu, 231): 1.9
isoTOP-ABPP reactivity Q9Y5Y2_C72 NUBP2 ([4]; 200 μM, insitu, 231): 4.0
isoTOP-ABPP reactivity P14635_C238 CCNB1 ([8]; 200 μM, insitu, 231): 3.7
SMILES: O=C(CCl)N1CCC(Cc2ccccc2)CC1 [compound 9]

isoTOP-ABPP ratio P35658_C728 ([1]; 200 μM, insitu, 231): 20.0
isoTOP-ABPP ratio Q9NQ88_C114 ([2]; 200 μM, insitu, 231): 2.1
isoTOP-ABPP ratio Q9NQ88_C161 ([2]; 200 μM, insitu, 231): 4.6
isoTOP-ABPP ratio Q9NQ88_C161 ([2]; 200 μM, insitu, ramos): 2.1
isoTOP-ABPP ratio, cysteine A0AVT1_C347 ([6]; 200 μM, insitu, ramos): 20.0
isoTOP-ABPP ratio, cysteine Q9Y5Y2_C72 ([4]; 200 μM, insitu, 231): 1.3
isoTOP-ABPP ratio Q8WWI1_C228 ([9]; 200 μM, insitu, 231): 17.2
isoTOP-ABPP ratio, cysteine Q8WV74_C207 ([5]; 200 μM, insitu, ramos): 20.0
isoTOP-ABPP ratio, cysteine P14635_C238 ([8]; 200 μM, insitu, 231): 6.7
isoTOP-ABPP ratio, cysteine Q06203_C100 [7]: 20.0
SMILES: O=C(CCl)N1CCN(S(=O)(=O)c2ccccc2F)CC1 [compound 10]

isoTOP-ABPP ratio P35658_C728 ([1]; 100 μM in situ 231): 0.8
isoTOP-ABPP ratio, cysteine Q8WVV9_C464 ([10]; 100 μM in situ 231): 0.9
isoTOP-ABPP ratio Q9NQ88_C114 ([2]; 100 μM in situ 231): 0.8
isoTOP-ABPP ratio Q9NQ88_C161 ([2]; 100 μM in situ 231): 0.9
isoTOP-ABPP ratio, cysteine A0AVT1_C347 ([6]; 100 μM in situ 231): 1.6
isoTOP-ABPP ratio, cysteine Q96EY5_C231 ([3]; 100 μM in situ 231): 0.7
isoTOP-ABPP ratio, cysteine Q9Y5Y2_C72 ([4]; 100 μM in situ 231): 0.5
isoTOP-ABPP ratio Q8WWI1_C228 ([9]; 100 μM in situ 231): 1.3
isoTOP-ABPP ratio, cysteine P14635_C238 ([8]; 100 μM in situ 231): 0.7
SMILES: Cn1cc(S(=O)(=O)N2CCOCC2)cc1C(=O)NC(=O)CCl [compound 11]

isoTOP-ABPP ratio, cysteine Q8WVV9_C464 ([10]; 200 μM, insitu, 231): 20.0
isoTOP-ABPP ratio Q8WWI1_C228 ([9]; 200 μM, insitu, 231): 20.0
SMILES: O=C(CCl)NC(=O)NC12CC3CC(CC(C3)C1)C2 [compound 12]

isoTOP-ABPP ratio P35658_C728 ([1]; 200 μM, insitu, 231): 1.0
isoTOP-ABPP ratio Q9NQ88_C114 ([2]; 200 μM, insitu, 231): 1.1
isoTOP-ABPP ratio Q9NQ88_C161 ([2]; 200 μM, insitu, 231): 1.1
isoTOP-ABPP ratio Q9NQ88_C114 ([2]; 200 μM, insitu, ramos): 1.2
isoTOP-ABPP ratio Q9NQ88_C161 ([2]; 200 μM, insitu, ramos): 1.5
isoTOP-ABPP ratio, cysteine A0AVT1_C347 ([6]; 200 μM, insitu, 231): 1.3
isoTOP-ABPP ratio, cysteine Q9Y5Y2_C72 ([4]; 200 μM, insitu, ramos): 1.5
isoTOP-ABPP ratio Q8WWI1_C228 ([9]; 200 μM, insitu, 231): 2.0
isoTOP-ABPP ratio Q8WWI1_C228 ([9]; 200 μM, insitu, ramos): 1.0
isoTOP-ABPP ratio, cysteine Q8WV74_C207 ([5]; 200 μM, insitu, 231): 13.1
isoTOP-ABPP ratio, cysteine P14635_C238 ([8]; 200 μM, insitu, 231): 1.3
isoTOP-ABPP ratio, cysteine P14635_C238 ([8]; 200 μM, insitu, ramos): 1.5
isoTOP-ABPP ratio, cysteine Q06203_C100 [7]: 2.0
SMILES: O=C(CCl)NCCc1c[nH]c2ccccc12 [compound 13]
